How the values were obtained:
Assay in all cases: radiometric filter-binding kinase assay, Kinase HotSpot
Conditions in all cases: compound 0.5 µM; ATP 10 µM
LIMK1 (human) = LIMK1 (human) (UniProt P53667)
MAPKAPK5 (human) = MAPKAPK5 (human) (UniProt Q8IW41)
LCK (human) = LCK (human) (UniProt P06239)
BRAF (human) = BRAF (human) (UniProt P15056)
IGF1R (human) = IGF1R (human) (UniProt P08069)
PRKCB1 (human) = PRKCB1 (human) (UniProt P05771)
NUAK1 (human) = NUAK1 (human) (UniProt O60285)
ULK1 (human) = ULK1 (human) (UniProt O75385)
CHEK2 (human) = CHEK2 (human) (UniProt O96017)
DAPK2 (human) = DAPK2 (human) (UniProt Q9UIK4)
CLK4 (human) = CLK4 (human) (UniProt Q9HAZ1)
AURKC (human) = AURKC (human) (UniProt Q9UQB9)
SRMS (human) = SRMS (human) (UniProt Q9H3Y6)
FGR (human) = FGR (human) (UniProt P09769)
CSNK1G3 (human) = CSNK1G3 (human) (UniProt Q9Y6M4)
MST1R (human) = MST1R (human) (UniProt Q04912)
RPS6KB2 (human) = RPS6KB2 (human) (UniProt Q9UBS0)
WEE1 (human) = WEE1 (human) (UniProt P30291)
MYLK2 (human) = MYLK2 (human) (UniProt Q9H1R3)
EPHA3 (human) = EPHA3 (human) (UniProt P29320)
NEK6 (human) = NEK6 (human) (UniProt Q9HC98)
MAP2K1 (human) = MAP2K1 (human) (UniProt Q02750)
CAMKK2 (human) = CAMKK2 (human) (UniProt Q96RR4)
PDGFRB (human) = PDGFRB (human) (UniProt P09619)
PKN1 (human) = PKN1 (human) (UniProt Q16512)
FGFR1 (human) = FGFR1 (human) (UniProt P11362)
ITK (human) = ITK (human) (UniProt Q08881)
ABL2 (human) = ABL2 (human) (UniProt P42684)
CDK1 CCNB1 (human) = CDK1 CCNB1 (human) (UniProt P06493+P14635)
ULK2 (human) = ULK2 (human) (UniProt Q8IYT8)
CAMK2D (human) = CAMK2D (human) (UniProt Q13557)
EGFR (human) = EGFR (human) (UniProt P00533)
HIPK4 (human) = HIPK4 (human) (UniProt Q8NE63)
IRAK4 (human) = IRAK4 (human) (UniProt Q9NWZ3)
PRKCZ (human) = PRKCZ (human) (UniProt Q05513)
TGFBR2 (human) = TGFBR2 (human) (UniProt P37173)

PRKCB1 (human), sequence (P05771 whole entry, looked up): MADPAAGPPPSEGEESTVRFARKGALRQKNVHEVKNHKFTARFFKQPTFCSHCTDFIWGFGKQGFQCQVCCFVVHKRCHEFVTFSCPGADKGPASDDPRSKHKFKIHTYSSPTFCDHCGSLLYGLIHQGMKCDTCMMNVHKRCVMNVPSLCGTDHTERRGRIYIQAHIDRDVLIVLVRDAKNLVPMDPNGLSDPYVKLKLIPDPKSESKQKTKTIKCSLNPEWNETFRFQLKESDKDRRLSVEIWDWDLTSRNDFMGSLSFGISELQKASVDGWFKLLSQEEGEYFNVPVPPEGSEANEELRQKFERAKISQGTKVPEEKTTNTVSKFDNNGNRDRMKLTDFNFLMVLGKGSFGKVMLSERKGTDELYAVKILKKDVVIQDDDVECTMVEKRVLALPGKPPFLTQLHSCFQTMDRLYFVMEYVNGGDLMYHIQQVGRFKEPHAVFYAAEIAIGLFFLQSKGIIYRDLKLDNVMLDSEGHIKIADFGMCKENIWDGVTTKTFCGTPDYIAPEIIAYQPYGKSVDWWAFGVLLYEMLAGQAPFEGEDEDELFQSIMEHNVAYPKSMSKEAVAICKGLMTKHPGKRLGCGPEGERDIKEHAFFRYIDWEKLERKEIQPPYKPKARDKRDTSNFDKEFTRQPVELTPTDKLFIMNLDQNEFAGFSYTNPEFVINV
ULK2 (human), sequence (Q8IYT8 whole entry, looked up): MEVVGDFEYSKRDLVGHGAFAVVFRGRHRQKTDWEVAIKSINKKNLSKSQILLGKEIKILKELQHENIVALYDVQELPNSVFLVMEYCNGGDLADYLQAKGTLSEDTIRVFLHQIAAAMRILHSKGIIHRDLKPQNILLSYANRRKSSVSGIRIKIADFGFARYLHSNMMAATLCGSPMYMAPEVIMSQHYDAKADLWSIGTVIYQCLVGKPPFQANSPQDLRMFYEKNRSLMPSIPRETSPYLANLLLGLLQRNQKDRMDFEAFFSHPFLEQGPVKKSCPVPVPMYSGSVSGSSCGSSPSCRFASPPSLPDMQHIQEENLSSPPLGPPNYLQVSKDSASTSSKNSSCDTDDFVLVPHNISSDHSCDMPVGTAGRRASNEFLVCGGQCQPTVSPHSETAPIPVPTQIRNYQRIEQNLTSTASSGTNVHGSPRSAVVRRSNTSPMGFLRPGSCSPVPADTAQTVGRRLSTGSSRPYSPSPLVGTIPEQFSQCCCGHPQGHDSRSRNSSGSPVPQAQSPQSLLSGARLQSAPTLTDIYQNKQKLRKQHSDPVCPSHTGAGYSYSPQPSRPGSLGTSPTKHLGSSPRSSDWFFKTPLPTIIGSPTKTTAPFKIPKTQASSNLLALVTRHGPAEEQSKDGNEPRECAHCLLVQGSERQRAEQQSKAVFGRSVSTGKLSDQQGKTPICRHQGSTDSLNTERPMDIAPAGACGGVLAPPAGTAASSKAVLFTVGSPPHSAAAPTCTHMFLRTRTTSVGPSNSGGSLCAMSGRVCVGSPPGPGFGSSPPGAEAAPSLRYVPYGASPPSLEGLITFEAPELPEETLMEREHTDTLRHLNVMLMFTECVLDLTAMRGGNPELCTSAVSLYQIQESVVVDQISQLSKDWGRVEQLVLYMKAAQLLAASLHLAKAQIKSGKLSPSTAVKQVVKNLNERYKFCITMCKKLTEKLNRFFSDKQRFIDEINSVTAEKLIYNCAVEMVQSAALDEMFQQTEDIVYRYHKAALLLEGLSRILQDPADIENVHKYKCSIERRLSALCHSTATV
EPHA3 (human), sequence (P29320 whole entry, looked up): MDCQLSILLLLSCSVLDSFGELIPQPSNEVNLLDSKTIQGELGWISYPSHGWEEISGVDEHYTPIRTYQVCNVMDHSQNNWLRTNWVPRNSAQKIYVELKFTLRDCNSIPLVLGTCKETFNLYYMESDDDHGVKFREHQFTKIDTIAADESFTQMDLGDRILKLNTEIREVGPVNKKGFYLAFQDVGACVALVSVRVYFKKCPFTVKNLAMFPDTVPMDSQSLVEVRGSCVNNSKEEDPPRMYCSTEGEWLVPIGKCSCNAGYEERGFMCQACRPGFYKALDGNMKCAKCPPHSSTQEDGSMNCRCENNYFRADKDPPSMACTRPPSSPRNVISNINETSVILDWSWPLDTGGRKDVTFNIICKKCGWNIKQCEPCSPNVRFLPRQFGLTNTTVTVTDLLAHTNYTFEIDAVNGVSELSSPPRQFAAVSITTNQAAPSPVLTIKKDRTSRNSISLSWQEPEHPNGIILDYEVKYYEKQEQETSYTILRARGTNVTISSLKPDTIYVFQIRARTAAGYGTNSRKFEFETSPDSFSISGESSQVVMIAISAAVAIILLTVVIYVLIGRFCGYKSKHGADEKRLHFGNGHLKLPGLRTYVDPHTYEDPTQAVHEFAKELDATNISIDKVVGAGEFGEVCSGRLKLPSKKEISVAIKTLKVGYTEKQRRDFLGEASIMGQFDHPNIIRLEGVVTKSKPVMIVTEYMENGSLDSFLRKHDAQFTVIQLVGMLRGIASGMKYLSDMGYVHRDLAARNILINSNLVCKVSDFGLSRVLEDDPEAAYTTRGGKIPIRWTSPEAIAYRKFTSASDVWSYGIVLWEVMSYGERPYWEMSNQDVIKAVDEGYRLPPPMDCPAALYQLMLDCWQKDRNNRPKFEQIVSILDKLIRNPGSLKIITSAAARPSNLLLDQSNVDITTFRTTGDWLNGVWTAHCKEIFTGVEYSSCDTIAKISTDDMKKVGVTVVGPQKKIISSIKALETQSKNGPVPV
ABL2 (human), sequence (P42684 whole entry, looked up): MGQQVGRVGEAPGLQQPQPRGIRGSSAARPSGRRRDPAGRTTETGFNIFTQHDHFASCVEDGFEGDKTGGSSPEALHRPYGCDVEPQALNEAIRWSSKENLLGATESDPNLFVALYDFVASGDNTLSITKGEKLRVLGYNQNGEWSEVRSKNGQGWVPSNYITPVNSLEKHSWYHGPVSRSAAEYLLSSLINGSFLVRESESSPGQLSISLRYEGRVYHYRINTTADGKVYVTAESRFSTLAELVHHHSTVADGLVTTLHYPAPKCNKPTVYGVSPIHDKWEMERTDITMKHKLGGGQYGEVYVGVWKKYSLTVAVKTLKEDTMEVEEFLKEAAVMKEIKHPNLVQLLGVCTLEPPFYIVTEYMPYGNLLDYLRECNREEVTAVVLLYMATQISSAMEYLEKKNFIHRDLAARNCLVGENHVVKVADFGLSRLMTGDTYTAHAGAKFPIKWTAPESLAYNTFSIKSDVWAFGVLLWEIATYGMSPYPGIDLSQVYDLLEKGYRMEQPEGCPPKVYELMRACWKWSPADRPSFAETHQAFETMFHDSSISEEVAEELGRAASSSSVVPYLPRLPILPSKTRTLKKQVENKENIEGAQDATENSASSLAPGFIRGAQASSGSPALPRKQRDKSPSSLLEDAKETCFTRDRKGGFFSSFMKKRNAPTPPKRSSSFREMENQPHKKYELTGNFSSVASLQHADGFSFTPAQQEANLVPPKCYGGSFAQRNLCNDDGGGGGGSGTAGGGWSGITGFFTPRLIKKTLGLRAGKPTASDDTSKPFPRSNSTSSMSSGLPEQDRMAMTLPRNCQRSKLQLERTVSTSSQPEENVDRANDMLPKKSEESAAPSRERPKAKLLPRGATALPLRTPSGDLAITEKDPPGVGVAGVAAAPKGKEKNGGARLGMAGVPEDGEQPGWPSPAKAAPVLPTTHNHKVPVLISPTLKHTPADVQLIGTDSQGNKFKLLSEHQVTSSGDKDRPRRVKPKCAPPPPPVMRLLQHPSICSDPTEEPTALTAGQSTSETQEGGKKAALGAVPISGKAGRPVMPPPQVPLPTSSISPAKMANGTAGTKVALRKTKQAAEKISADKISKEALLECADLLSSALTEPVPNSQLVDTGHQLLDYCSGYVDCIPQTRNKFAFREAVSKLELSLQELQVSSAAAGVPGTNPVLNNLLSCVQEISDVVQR
ULK1 (human), sequence (O75385 whole entry, looked up): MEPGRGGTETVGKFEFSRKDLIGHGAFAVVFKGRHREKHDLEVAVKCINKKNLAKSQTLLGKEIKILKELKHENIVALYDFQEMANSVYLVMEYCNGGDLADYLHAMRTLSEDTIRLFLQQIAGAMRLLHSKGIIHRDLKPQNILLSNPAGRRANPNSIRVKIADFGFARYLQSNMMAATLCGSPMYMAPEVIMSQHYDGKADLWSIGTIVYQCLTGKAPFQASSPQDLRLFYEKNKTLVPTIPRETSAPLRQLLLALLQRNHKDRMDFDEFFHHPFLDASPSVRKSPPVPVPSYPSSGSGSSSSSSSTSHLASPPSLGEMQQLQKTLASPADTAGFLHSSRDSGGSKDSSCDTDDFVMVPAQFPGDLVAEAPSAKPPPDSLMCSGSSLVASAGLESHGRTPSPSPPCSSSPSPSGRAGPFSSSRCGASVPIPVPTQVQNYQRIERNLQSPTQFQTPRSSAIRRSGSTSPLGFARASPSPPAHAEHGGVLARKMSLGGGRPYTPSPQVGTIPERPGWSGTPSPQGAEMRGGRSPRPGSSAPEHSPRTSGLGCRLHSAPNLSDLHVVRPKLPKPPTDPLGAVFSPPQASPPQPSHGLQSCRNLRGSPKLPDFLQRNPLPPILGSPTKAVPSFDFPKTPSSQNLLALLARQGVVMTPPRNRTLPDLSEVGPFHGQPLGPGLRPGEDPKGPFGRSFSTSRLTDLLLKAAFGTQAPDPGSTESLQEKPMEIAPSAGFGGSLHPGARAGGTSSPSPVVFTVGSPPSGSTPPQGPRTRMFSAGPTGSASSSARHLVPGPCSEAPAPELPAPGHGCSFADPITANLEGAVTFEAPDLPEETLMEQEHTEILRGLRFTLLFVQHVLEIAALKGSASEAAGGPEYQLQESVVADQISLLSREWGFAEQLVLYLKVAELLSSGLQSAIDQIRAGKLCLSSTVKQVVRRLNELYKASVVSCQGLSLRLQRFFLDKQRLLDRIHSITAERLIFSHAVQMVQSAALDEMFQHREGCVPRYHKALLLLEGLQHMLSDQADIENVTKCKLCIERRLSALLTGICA

CCOc1cc2ncnc(Nc3cccc(Br)c3)c2cc1OCC
residual activity (LIMK1 (human)): 101%
residual activity (MAPKAPK5 (human)): 71.6%
residual activity (LCK (human)): 52.9%
residual activity (BRAF (human)): 97.1%
residual activity (IGF1R (human)): 101%
residual activity (PRKCB1 (human)): 100%
residual activity (NUAK1 (human)): 94%
residual activity (ULK1 (human)): 98.8%
residual activity (CHEK2 (human)): 92%
residual activity (DAPK2 (human)): 103%
residual activity (CLK4 (human)): 83.1%
residual activity (AURKC (human)): 83.7%
residual activity (SRMS (human)): 85.7%
residual activity (FGR (human)): 61.9%
residual activity (CSNK1G3 (human)): 98.7%
residual activity (MST1R (human)): 102%
residual activity (RPS6KB2 (human)): 102%
residual activity (WEE1 (human)): 97.9%
residual activity (MYLK2 (human)): 93.5%
residual activity (EPHA3 (human)): 83.3%
residual activity (NEK6 (human)): 106%
residual activity (MAP2K1 (human)): 96.1%
residual activity (CAMKK2 (human)): 101%
residual activity (PDGFRB (human)): 94.8%
residual activity (PKN1 (human)): 100%
residual activity (FGFR1 (human)): 90.9%
residual activity (ITK (human)): 104%
residual activity (ABL2 (human)): 52.1%
residual activity (CDK1 CCNB1 (human)): 80.8%
residual activity (ULK2 (human)): 82.8%
residual activity (CAMK2D (human)): 87%
residual activity (EGFR (human)): 2.02%
residual activity (HIPK4 (human)): 89.9%
residual activity (IRAK4 (human)): 102%
residual activity (PRKCZ (human)): 97.8%
residual activity (TGFBR2 (human)): 83.4%

COc1cc2ncnc(Nc3ccc(O)c(Br)c3)c2cc1OC
residual activity (LIMK1 (human)): 85.1%
residual activity (MAPKAPK5 (human)): 98.7%
residual activity (LCK (human)): 48.9%
residual activity (IGF1R (human)): 104%
residual activity (PRKCB1 (human)): 96.6%
residual activity (NUAK1 (human)): 68.2%
residual activity (ULK1 (human)): 87.2%
residual activity (CHEK2 (human)): 51%
residual activity (DAPK2 (human)): 100%
residual activity (CLK4 (human)): 101%
residual activity (AURKC (human)): 83.7%
residual activity (SRMS (human)): 90.4%
residual activity (FGR (human)): 57.8%
residual activity (CSNK1G3 (human)): 101%
residual activity (MST1R (human)): 101%
residual activity (RPS6KB2 (human)): 102%
residual activity (WEE1 (human)): 92.5%
residual activity (MYLK2 (human)): 87.3%
residual activity (EPHA3 (human)): 95.4%
residual activity (NEK6 (human)): 100%
residual activity (MAP2K1 (human)): 98.2%
residual activity (CAMKK2 (human)): 92.4%
residual activity (PDGFRB (human)): 93.7%
residual activity (PKN1 (human)): 95.6%
residual activity (FGFR1 (human)): 93.4%
residual activity (ITK (human)): 92.8%
residual activity (ABL2 (human)): 58.4%
residual activity (CDK1 CCNB1 (human)): 81.3%
residual activity (ULK2 (human)): 104%
residual activity (CAMK2D (human)): 95.7%
residual activity (EGFR (human)): 2.22%
residual activity (HIPK4 (human)): 107%
residual activity (IRAK4 (human)): 91.1%
residual activity (PRKCZ (human)): 93%
residual activity (TGFBR2 (human)): 105%

O=C1NC(=O)c2c1c1c3ccccc3[nH]c1c1[nH]c3cc(Br)ccc3c21
residual activity (LIMK1 (human)): 83.5%
residual activity (MAPKAPK5 (human)): 86.2%
residual activity (LCK (human)): 88.9%
residual activity (IGF1R (human)): 15%
residual activity (PRKCB1 (human)): 78.6%
residual activity (NUAK1 (human)): 14.3%
residual activity (ULK1 (human)): 99.2%
residual activity (CHEK2 (human)): 37.5%
residual activity (DAPK2 (human)): 98.4%
residual activity (CLK4 (human)): 49.5%
residual activity (AURKC (human)): 51.9%
residual activity (SRMS (human)): 91.5%
residual activity (FGR (human)): 88.8%
residual activity (CSNK1G3 (human)): 94.6%
residual activity (MST1R (human)): 101%
residual activity (RPS6KB2 (human)): 83.9%
residual activity (WEE1 (human)): 74.6%
residual activity (MYLK2 (human)): 43.3%
residual activity (EPHA3 (human)): 100%
residual activity (NEK6 (human)): 104%
residual activity (MAP2K1 (human)): 90.3%
residual activity (CAMKK2 (human)): 48.1%
residual activity (PDGFRB (human)): 82.6%
residual activity (PKN1 (human)): 66%
residual activity (FGFR1 (human)): 85.3%
residual activity (ITK (human)): 84.1%
residual activity (ABL2 (human)): 93.8%
residual activity (CDK1 CCNB1 (human)): 47.8%
residual activity (ULK2 (human)): 86%
residual activity (CAMK2D (human)): 63.1%
residual activity (EGFR (human)): 100%
residual activity (HIPK4 (human)): 94.1%
residual activity (IRAK4 (human)): 76.2%
residual activity (PRKCZ (human)): 91.8%
residual activity (TGFBR2 (human)): 61.8%

Source: the kinase profiling compilation of Christmann-Franck et al. (2016)
